The source of these data is US20120316245A1, “CO-CRYSTALS OF AGOMELATINE, A PROCESS FOR THERE PREPARATION AND PHARMACEUTICAL COMPOSITIONS CONTAINING THEM” (LES LABORATOIRES SERVIER, priority 2011, published 2012).

Molecules are shown by their SMILES.

This data set can be described thus: Measurement of the dissolution rate of the co-crystals (tDISS apparatus, pION). It counts as physicochemical. The settings on record: 37° C., stirring speed 700 rpm. From the text: The results obtained are collated in the following tables and are expressed as percentage increases in the dissolution rate of the co-crystal compared to the dissolution rate obtained for agomelatine of form II contained in the marketed Valdoxan® form: [formula]

Take `COc1ccc2cccc(CCNC(C)=O)c2c1.O=C(O)CC(O)(CC(=O)O)C(=O)O` [Compound of Example 1, Co-Crystal of Agomelatine/Citric Acid (1/1)]: the “percentage increase in the dissolution rate of the co-crystal compared to agomelatine of form II (Valdoxan)” value (“percentage increase” for short) by setting is: (0.01 N HCl) “+25%”; (pH 6.8 buffer) “+70%”.
As for `COc1ccc2cccc(CCNC(C)=O)c2c1.COc1ccc2cccc(CCNC(C)=O)c2c1.O=C(O)c1cc(O)c(O)c(O)c1` [Compound of Example 2, Co-Crystal of Agomelatine/Gallic Acid (2/1)], the “percentage increase” value is, setting by setting: (0.01 N HCl) “+37%”; (pH 6.8 buffer) “+29%”.
The matching figures for `COc1ccc2cccc(CCNC(C)=O)c2c1.O=C(O)C=CC(=O)O` [Compound of Example 3, Co-Crystal of Agomelatine/Maleic Acid (1/1)]: −26% and −4%.
Consider `COc1ccc2cccc(CCNC(C)=O)c2c1.O=C(O)CC(=O)O` [Compound of Example 4, Co-Crystal of Agomelatine/Malonic Acid (1/1)], for which the “percentage increase” value is, setting by setting: (0.01 N HCl) −55%; (pH 6.8 buffer) −21%.
The matching figures for `COc1ccc2cccc(CCNC(C)=O)c2c1.COc1ccc2cccc(CCNC(C)=O)c2c1.O=C(O)c1ccc(O)cc1` [Compound of Example 5, Co-Crystal of Agomelatine/Para-Hydroxybenzoic Acid (2/1)]: “+97%” and “+89%”.
The matching figures for `COc1ccc2cccc(CCNC(C)=O)c2c1.O=C(O)c1ccc(O)cc1.O=C(O)c1ccc(O)cc1` [Compound of Example 6, Co-Crystal of Agomelatine/Para-Hydroxybenzoic Acid (1/2)]: “+19%” and “+46%”.
Take `COc1ccc2cccc(CCNC(C)=O)c2c1.COc1ccc2cccc(CCNC(C)=O)c2c1.O=C(O)C(=O)O` [Compound of Example 7, Co-Crystal of Agomelatine/Oxalic Acid (2/1)]: the “percentage increase” value is “+1.5%” (0.01 N HCl) and “+33%” (pH 6.8 buffer).
For the compound `COc1ccc2cccc(CCNC(C)=O)c2c1.O=C(O)CCCC(=O)O` [Compound of Example 8, Co-Crystal of Agomelatine/Glutaric Acid (1/1)], the “percentage increase” value runs as follows: (0.01 N HCl) −42%; (pH 6.8 buffer) −29%.
In the case of `COc1ccc2cccc(CCNC(C)=O)c2c1.O=C(O)CCC(=O)C(=O)O` [Compound of Example 9, Co-Crystal of Agomelatine/Ketoglutaric Acid (1/1)], the “percentage increase” value (0.01 N HCl) was −47% and the “percentage increase” value (pH 6.8 buffer) is reported as −32%.
`COc1ccc2cccc(CCNC(C)=O)c2c1.O=C(O)CO` [Compound of Example 10, Co-Crystal of Agomelatine/Glycolic Acid (1/1)]: the “percentage increase” value (0.01 N HCl) is reported as −30% and the “percentage increase” value (pH 6.8 buffer) was −30%.
